Laboratory results as given in patent US12662688B2, “Site-selective deuteration of amino acids through dual protein catalysis” (Wisconsin Alumni Research Foundation, priority 2022, dated 2026).

Legend:
DsaD [1] = target: T1, DsaD (Streptomyces scopuliridis, UniProt A0A0D5CCB2); assay: UV-vis spectroscopy of amino acid binding to DsaD; conditions: 20 μM DsaD, pH 8.0, 25° C.
Experimental: UV-Vis Spectroscopy: Data were collected between 600 and 300 nm on a UV-2600 Shimadzu spectrophotometer (Shimadzu, Kyoto, Japan) with a semi-micro quartz cuvette (Starna Cells, Atascadero, California, USA) at 25° C. DsaD stock solutions were diluted to 20 μM in 50 mM sodium phosphate pH 8.0. For observation of substrate binding, amino acids were added at concentrations ranging from 2.5-10 mM. Spectra from 600-300 nm were collected after a 2-minute incubation period. Amino acid stocks were prepared as 100 mM stocks in deionized water.

DsaD/E complex [2] = assay: Preparative-scale Cα/Cβ-deuteration with DsaD and DsaE clarified lysates in D2O; type: biochemical, Streptomyces scopuliridis
Experimental: (§1) FIG. 5. ^1H NMR analysis of site-selective deuteration of L-Leu. Reaction conditions: 20 mM L-Leu 2.5% v/v DsaD clarified lysate, 2.5% v/v DsaE clarified lysate (when needed), 50 mM sodium phosphate (pD 8.4), 0.1 mM PLP, D2O (99.9% D).
(§2) FIG. 8. Preparative-scale and site-selective deuteration of amino acids. Conditions: 10-20 mM amino acid, 2.5% v/v DsaD clarified lysate, 2.5% v/v DsaE clarified lysate, 50 mM sodium phosphate (pD 8.4), 0.1 mM PLP, D2O (99.9%).
(§3) General procedure for milligram-scale biocatalytic deuteration: A 4-dram scintillation vial was charged with amino acid (10-20 mM final concentration), Na3PO4 buffer pD 8.4 (50 mM final concentration), PLP (100 μM final concentration), DsaD clarified cell lysate (2.5% v/v), DsaE clarified cell lysate (if applicable) (2.5% v/v), and D2O (or dH2O) to the appropriate final volume. The reaction vessel was placed in an incubator at 37° C. for 16 h. Reaction progress was monitored by UPLC-MS. After reaction completion, the reaction mixture was quenched with an equivalent volume of acetone and centrifuged (4,000 rpm, 10 min) to remove denatured protein. Supernatant was transferred to a clean beaker, the decanted supernatant was concentrated to remove acetone by rotary evaporation and loaded onto a preparative reverse-phase C18 column pre-equilibrated with water. Purification was performed via gradient elution on an Isolera One Flash Purification system (Biotage). Fractions bearing product (confirmed by UPLC-MS sampling of fraction tubes) were pooled and dried by rotary evaporation. The product was then resuspended in a minimal quantity of water, transferred to a pre-weighed 20 mL vial, frozen, and lyophilized.

DsaD/DsaE complex = DsaD/DsaE complex (Streptomyces scopuliridis, UniProt A0A0D5CCB2); assay: Steady-state kinetic analysis of H/D exchange of L-Ile by DsaD with partner protein DsaE; type: biochemical
Experimental: (§4) FIGS. 2A-2E. Steady-state kinetic analysis of H/D exchange by the Ile epimerization system. FIG. 2A. Steady-state kinetic analysis describing Cβ-deuteration^a of L-Ile under varied equivalents of partner enzyme DsaE. FIG. 2B. Steady-state kinetic analysis of Cβ-deuteration rates^a at a constant 1 mM L-Ile, measured against increasing equivalents of DsaE. FIG. 2C. Steady-state kinetic analysis of Cα-deuteration^a of L-Ile in the presence and absence of partner protein DsaE. FIG. 2D. Proposed mechanism of selective deuterium incorporation at Cα and Cβ catalyzed by dual protein catalysis. FIG. 2E. UV-visible spectrum of DsaD in the absence and presence of L-Ile.^a Measurement of initial rates was performed in duplicate at 24° C. Conditions: 0.1-10 mM L-Ile, 3 μM DsaD, 50 mM sodium phosphate (pD 8.4), and 0.1 mM PLP in D2O (99.9%). Proteins were exchanged into a 50 mM sodium phosphate-D2O (pD 8.4) solution prior to reaction initiation to minimize proton contamination (<1% H2O). Following quench with MeCN, crude reaction products were subjected to functionalization with Marfey's reagent (L-FDAA) to enable analysis by reverse-phase chromatography and quantification of isotope incorporation by mass spectrometry.
(§5) Marfey's derivatization of analytical scale reactions: Derivatization of the resulting analytical scale product mixture (to increase overall signal and enable reverse phase chromatographic analysis) was achieved by treatment with Marfey's reagent^2 (1-fluoro-2-4-dinitrophenyl-5-L-alanine amide, L-FDAA) using the following protocol. 25 μL of quenched reaction mix (final amine concentration, 1.6 mM) was added to an Eppendorf tube with 50 μL of 15 mM NaHCO3 (final concentration, 5 mM) and 75 μL of 5 mM L-FDAA (final concentration, 2.5 mM). Derivatization reactions were carried out for 10-12 h before quenching with 150 μL of 60 mM HCl dissolved in acetonitrile. Final reaction analysis was carried out by UPLC-DAD-MS and quantitation as described below.
(§6) Quantitation of deuteration in analytical scale reactions: Deuteration reactions were analyzed by UPLC-DAD-MS with single ion recording (SIR) channels set to record a spectrum with the appropriate isotopic mass in positive mode. The area under the curve of recorded SIR peaks was obtained and normalized to account for natural isotopic abundance distributions (e.g. ^13C, ^15N, ^2H, ^34S, etc). Percent deuterium incorporation was calculated by the formula below. These measurements were carried out in an iterative fashion to measure Cα deuteration and Cβ deuteration.
Kinetic analysis of biocatalytic L-Ile deuteration: Initial rates of α- or β-deuteration were obtained by means of end-point assay using the quantitation protocol for analytical scale reactions as described above. All reagents were prepared in D2O (99.9% D) and protein stocks were dialyzed (3 exchanges over 3 h at 4° C.) into 50 mM sodium phosphate buffer dissolved in D2O (pD 8.4) using a slide-a-lyzer device with a 3,000 Da cutoff. Reactions were performed at 25° C. in 1 mL Eppendorf tubes. Michaelis constants (KM) for α- and β-deuteration of L-Ile were determined using the concentration range of 0.1-10 mM L-Ile using 3 μM DsaD. Partner protein (DsaE) concentrations were consistent within each experiment and separate experiments were performed using varied equivalents of partner protein (0-50 equiv). Initial velocities were measures in duplicate or triplicate for at least 6 different substrate concentrations for each set of conditions tested. Measurements of the impact of partner protein (DsaE) concentration on the initial rate of β-deuteration were carried out using 1 mM L-Ile, 3 μM DsaD and varying DsaE concentrations between 3 μM-600 μM (1-200 equiv). Under the minimal proton contamination conditions of this assay (99.9% D2O), Cα and Cβ deuteration are assumed to have occurred without back transfer to proton. The data were fit using the Michaelis-Menten equation implemented in Prism.

DsaD [3] = target: T1, DsaD; assay: H/D exchange of L-Ile with DsaD alone (steady-state kinetics); type: biochemical
Experimental: as §4, with “Conditions: 0.1-10 mM L-Ile, 3 μM DsaD, 50 mM sodium phosphate (pD 8.4), and 0.1 mM PLP in D2O (99.9%). Proteins were exchanged into a 50 mM sodium phosphate-D2O (pD 8.4) solution prior to reaction initiation to minimize proton contamination (<1% H2O).” left out
(§7) Kinetic analysis of biocatalytic L-Ile deuteration: Initial rates of α- or β-deuteration were obtained by means of end-point assay using the quantitation protocol for analytical scale reactions as described above. […] Michaelis constants (KM) for α- and β-deuteration of L-Ile were determined using the concentration range of 0.1-10 mM L-Ile using 3 μM DsaD. […]

DsaD/E complex [4] = assay: Analytical-scale Cα/Cβ H/D exchange with purified DsaD and DsaE; type: biochemical, Streptomyces scopuliridis; conditions: 1 mM Ile, 0.05 mol % DsaD and DsaE (1:1), D2O, 37° C., 8 h
DsaD [5] = target: T1, DsaD; assay: Preparative-scale Cα-deuteration with DsaD clarified lysate in D2O; type: biochemical; conditions: DsaD lysate only
Experimental: as §1, §2
as §3, with “Supernatant was transferred to a clean beaker, the decanted supernatant was concentrated to remove acetone by rotary evaporation and loaded onto a preparative reverse-phase C18 column pre-equilibrated with water. Purification was performed via gradient elution on an Isolera One Flash Purification system (Biotage). Fractions bearing product (confirmed by UPLC-MS sampling of fraction tubes) were pooled and dried by rotary evaporation.” left out

DsaD/E system = assay: Two-step Cα/Cβ deuteration then Cα deuterium washout with DsaD in H2O; type: biochemical, Streptomyces scopuliridis; conditions: lower substrate loading (10 mM), after Cα washout
Experimental: as §3
An initial reaction was performed with DsaD and DsaE to produce Cα,Cβ-deuterated L-Leu-2,3,3-d3 (25). Following reaction quenching with acetone, centrifugation to remove protein products, and removal of acetone and D2O via rotary evaporation, the dry crude product mixture was subjected to standard reaction conditions with DsaD in water. This reaction led to washout of the Cα deuterium, providing exclusively Cβ-deuterated L-Leu-3,3-d2 (44) with high levels of deuterium incorporation at Cβ (FIG. 5, 86% D incorporation and 98% ee). The site of H/D exchange in these reactions is dictated by the presence or absence of DsaE from the reaction conditions, enabling control of amino acid deuteration patterns.
We performed Cα/Cβ deuteration on a panel of amino acids, quenched the reactions and resubjected the crude product to Cα deuterium washout with DsaD in H2O. […]

DsaD/E complex [6] = assay: Analytical-scale Cα/Cβ H/D exchange with purified DsaD and DsaE; type: biochemical, Streptomyces scopuliridis; conditions: 10 mM substrate, 5 μM DsaD, 50 μM DsaE (10:1), 37° C., 8 h
Experimental: FIGS. 3A-3C. Optimization of H/D exchange reactions and evaluation of the substrate scope. FIG. 3A. Optimization of Cβ-deuteration by increasing equivalents of partner protein DsaE. FIG. 3B. Evaluation of substrate scope of dual-protein-catalyzed Cα/Cβ deuteration under optimized conditions. FIG. 3C. UV-visible spectroscopy used to evaluate non-native substrate binding to DsaD. Reaction conditions: 10 mM amino acid substrate, 50 μM DsaE, 5 μM DsaD (10:1), 50 mM sodium phosphate (pD 8.4), 0.1 mM PLP, D2O, 37° C., 8 h. Reactions performed in duplicate, and percentage isotope incorporation is reported as the average of the replicates.
General procedure analytical scale deuteration reactions: α/β deuteration reactions were performed as follows. A 1 mL Eppendorf tube was charged with amino acid (10-20 mM final concentration), Na3PO4 buffer pD 8.4 (50 mM final concentration), PLP (100 μM final concentration), purified enzymes or appropriate lysate and D2O and to the appropriate final volume (typically 50 μL). Reactions were carried out at 37° C. for 8 h and quenched by the addition of 3 volumes of acetonitrile. Precipitated biomolecules were pelleted by centrifugation (16,000×g, 10 min) and samples were processed as described below.
as §5, §6

[7] = substrate: CC[C@H](C)[C@H](N)C(=O)O; assay: H/D exchange of L-Ile with DsaD alone (steady-state kinetics); type: biochemical, Streptomyces scopuliridis; conditions: other: DsaD alone; pH 8.4
Experimental: as §4, with “Conditions: 0.1-10 mM L-Ile, 3 μM DsaD, 50 mM sodium phosphate (pD 8.4), and 0.1 mM PLP in D2O (99.9%). Proteins were exchanged into a 50 mM sodium phosphate-D2O (pD 8.4) solution prior to reaction initiation to minimize proton contamination (<1% H2O).” left out
as §7

[8] = lower substrate loading (10 mM)

DsaD/DsaE complex, sequence (A0A0D5CBB6 entry or part of it, one chain of several): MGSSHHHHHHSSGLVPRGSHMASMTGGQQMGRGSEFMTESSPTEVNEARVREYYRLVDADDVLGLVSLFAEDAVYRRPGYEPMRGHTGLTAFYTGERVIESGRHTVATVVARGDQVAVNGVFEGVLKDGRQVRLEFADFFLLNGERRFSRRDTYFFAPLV

CC[C@H](C)[C@H](N)C(=O)O [Ile, isoleucine]
substrate binding to DsaD by UV-vis (DsaD [1]): appearance of a new absorbance band at 328 nm
deuteration at Cα (DsaD/E complex [2]; >600 mg scale): 95%
deuteration at Cβ (DsaD/E complex [2]; >600 mg scale): 93%
change of observed kcat or KM for Cα-deuteration (DsaD/DsaE complex; 150 μM DsaE (50:1 DsaE:DsaD)): did not significantly impact
change of kcat of Cβ-deuteration (DsaD/DsaE complex; 5 equiv. of DsaE (5:1 DsaE:DsaD) vs one equivalent): did not significantly change
decrease in observed KM of Cβ-deuteration (DsaD/DsaE complex; 5 equiv. vs one equivalent of DsaE): 11 fold
increase in kcat of Cβ-deuteration (DsaD/DsaE complex; 50 equiv. of DsaE (50:1 DsaE:DsaD)): ~4 fold
kcat of Cβ-deuteration (DsaD/DsaE complex; one equivalent of DsaE, 3 μM DsaD, D2O pD 8.4): 0.07 ± 0.007 s⁻¹
kcat of Cα-deuteration (DsaD/DsaE complex; with DsaE bound): 0.75 ± 0.01 s⁻¹
kcat of Cα exchange (DsaD [3]; DsaD alone): 1.04 ± 0.04 s⁻¹
H/D exchange with just DsaD (DsaD [3]; excluding partner protein DsaE): a single H/D exchange event
major product of H/D exchange (DsaD/E complex [4]): 1:1 mixture of d2-2,3-L-Ile and d2-2,3-L-allo-Ile

[2H][C@](N)(CC(C)C)C(=O)O [L-Leu-2-d]
D incorporation at Cα (DsaD [5]): 95%
ee (DsaD [5]): > 99 % ee

N[C@@H](Cc1ccccc1)C(=O)O [Phe, phenylalanine]
deuterium incorporation at Cβ (DsaD/E system): 91%
D-incorporation at Cα (DsaD/E complex [6]): high Cα deuteration
D-incorporation at Cβ (DsaD/E complex [6]): 67%

N[C@@H](Cc1ccc(O)cc1)C(=O)O [Tyr, tyrosine]
deuterium incorporation at Cβ (DsaD/E system): 40%
deuterium incorporation at Cα (DsaD/E complex [2]; [8]): 95%
deuterium incorporation at Cβ (DsaD/E complex [2]; [8]): 49%
D-incorporation at Cα (DsaD/E complex [6]): 99%
D-incorporation at Cβ (DsaD/E complex [6]): 27%

B1: DsaD (Streptomyces scopuliridis) (protein)
chain: MGSSHHHHHHSSGLVPRGSHMASMTGGQQMGRGSEFMHIVTTPVARPLTAQERTERCAAPAFGTAFTEHMVSARWNPEQGWHDAELVPYGPLLLDPATVGLHYGQVVFEGLKAFRSHTGEVAVFRPDAHAERMRASARRLMMPEPPEELFLAAVDALVAQDQEWIPDDPGMSLYLRPILFASERTLALRPAREYRFLLVAFITEGYFGPAQRPVRVWVTDEYSRAAAGGTGAAKCAGNYAGSLLAQEEAQRKGCDQVVWLDPVERNWVEEMGGMNLFFVYEAGGSARLVTPPLTGSLLPGVTRDALLRLAPTLGVPVSEAPLSLEQWRADCASGAITEVFACGTAARISPVNEVSTKDGSWTIGAGAPAEGGVAAGEVTGRLSAALFGIQRGELPDSHSWMRPVSPARQSAIT
Km [7]: 700 ± 100 µM
